Laboratory results taken from ChEMBL document CHEMBL1201862, “PubChem BioAssay data set” (2004).
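Dose response: 5 concentrations. Exposure: 48 h. Format: 96-well plates. Endpoint: linear interpolation; highest concentration if not reached. GI50: concentration for 50% inhibition of growth.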 The source made the active and inactive calls. No stated cut-off is given here; in the data, active = GI50 up to about 1.1 µM and inactive = higher.

How the values were obtained:
Assay in all cases: NCI anticancer screen, dose series, 48 h
HOP-62 = tested on: HOP-62
UACC-62 = tested on: UACC-62
K562 = tested on: K562
SN12C = tested on: SN12C
NCI-H460 = tested on: NCI-H460
HCT-116 = tested on: HCT-116
UACC-257 = tested on: UACC-257
OVCAR-4 = tested on: OVCAR-4
OVCAR-3 = tested on: OVCAR-3
SK-OV-3 = tested on: SK-OV-3
UO-31 = tested on: UO-31
LOX IMVI = tested on: LOX IMVI
HCC 2998 = tested on: HCC 2998
RXF 393 = tested on: RXF 393
NCI-H522 = tested on: NCI-H522
SR = tested on: SR
CAKI-1 = tested on: CAKI-1
SW-620 = tested on: SW-620
SK-MEL-5 = tested on: SK-MEL-5
OVCAR-8 = tested on: OVCAR-8

SMILES | GI50 (HOP-62) | GI50 (UACC-62) | GI50 (K562) | GI50 (SN12C) | GI50 (NCI-H460) | GI50 (HCT-116) | GI50 (UACC-257) | GI50 (OVCAR-4) | GI50 (OVCAR-3) | GI50 (SK-OV-3) | GI50 (UO-31) | GI50 (LOX IMVI) | GI50 (HCC 2998) | GI50 (RXF 393) | GI50 (NCI-H522) | GI50 (SR) | GI50 (CAKI-1) | GI50 (SW-620) | GI50 (SK-MEL-5) | GI50 (OVCAR-8)
O=S(O)c1cc(Cl)c(O)c(Cl)c1 | > 100 µM (inactive) | > 100 µM (inactive) | > 100 µM (inactive) | > 100 µM (inactive) | > 100 µM (inactive) | > 100 µM (inactive) | > 100 µM (inactive) | > 100 µM (inactive) | > 100 µM (inactive) | > 100 µM (inactive) | > 100 µM (inactive) | > 100 µM (inactive) | > 100 µM (inactive) | > 100 µM (inactive) | > 100 µM (inactive) | > 100 µM (inactive) | – | – | – | –
Nc1ccc(OCC(O)N2C(=O)c3ccccc3C2=O)cc1 (configuration not stated) | > 100 µM (inactive) | > 100 µM (inactive) | > 100 µM (inactive) | – | > 100 µM (inactive) | > 100 µM (inactive) | > 100 µM (inactive) | > 100 µM (inactive) | > 100 µM (inactive) | > 100 µM (inactive) | > 100 µM (inactive) | > 100 µM (inactive) | > 100 µM (inactive) | – | > 100 µM (inactive) | > 10 µM (inactive) | < 0.01 µM (active) | 76.9 µM (inactive) | > 100 µM (inactive) | > 100 µM (inactive)
COc1ccc(/C(C=O)=C(\Cl)c2ccc(OC)c(OC)c2)cc1 | 36.8 µM (inactive) | > 100 µM (inactive) | 62.8 µM (inactive) | > 100 µM (inactive) | > 100 µM (inactive) | > 100 µM (inactive) | > 100 µM (inactive) | > 100 µM (inactive) | > 100 µM (inactive) | 67.1 µM (inactive) | > 100 µM (inactive) | > 100 µM (inactive) | > 100 µM (inactive) | > 100 µM (inactive) | 5.83 µM (inactive) | 3.89 µM (inactive) | > 100 µM (inactive) | > 100 µM (inactive) | > 100 µM (inactive) | 75.5 µM (inactive)
O=C1/C(=C/c2ccc(Cl)cc2)N=C(c2ccccc2)N1/N=C/c1ccccc1O | 1.87 µM (inactive) | 13.9 µM (inactive) | 9.12 µM (inactive) | 23.4 µM (inactive) | 18 µM (inactive) | 2.44 µM (inactive) | > 100 µM (inactive) | 4.57 µM (inactive) | 9.1 µM (inactive) | 5.61 µM (inactive) | 11.6 µM (inactive) | 13.2 µM (inactive) | – | 11.4 µM (inactive) | 13.4 µM (inactive) | – | 7.6 µM (inactive) | > 100 µM (inactive) | 15.1 µM (inactive) | 5.51 µM (inactive)
